Assay results taken from patent publication US10189839B2, “Tricyclic imidazole compounds as inhibitors of tryptophan hydroxylase” (ACTELION PHARMACEUTICALS LTD, priority 2013, dated 2019).

Target: T1, full length human TPH1 (Homo sapiens, UniProt P17752)
T1 construct: To generate the enzyme, full length human TPH1 is cloned into the plasmid pET20b(+); made in house; host or cells: E. coli
T1 sequence (P17752 1-444): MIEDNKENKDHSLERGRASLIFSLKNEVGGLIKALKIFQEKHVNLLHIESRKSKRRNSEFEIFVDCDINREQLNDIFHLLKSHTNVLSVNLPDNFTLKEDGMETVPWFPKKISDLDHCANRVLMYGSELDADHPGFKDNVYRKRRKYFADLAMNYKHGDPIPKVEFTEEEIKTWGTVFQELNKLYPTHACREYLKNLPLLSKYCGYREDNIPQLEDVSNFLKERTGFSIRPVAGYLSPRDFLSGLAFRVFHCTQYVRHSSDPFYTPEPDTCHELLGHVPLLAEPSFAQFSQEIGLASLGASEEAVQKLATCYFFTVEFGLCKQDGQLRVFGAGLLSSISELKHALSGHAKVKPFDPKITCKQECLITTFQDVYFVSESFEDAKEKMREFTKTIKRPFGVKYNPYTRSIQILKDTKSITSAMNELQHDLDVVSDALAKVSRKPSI
Test: Biochemical in vitro assay using fluorescence readout (TPH1 enzyme activity)
Conditions: Table 1, mean where determined several times
From the text: Inhibitory activities on tryptophan hydroxylase 1 have been measured for each example compound using the following procedure:
Biochemical In Vitro Assay Using Fluorescence Readout
To generate the enzyme, full length human TPH1 is cloned into the plasmid pET20b(+) (Novagen) and expressed in E. coli. The bacterial cells are ruptured by sonication on ice and the lysate is cleared by centrifugation. The resulting protein in the pellet is re-extracted and TPH1 is purified from the obtained lysate by affinity chromatography using a pterin cosubstrate analog immobilized to the resin of the column. The protein is further purified by size exclusion chromatography to remove protein aggregates. The activity of TPH1 is determined by using a fluorescence assay. The enzyme activity assay is carried out at 15° C. with atmosphere oxygen for the duration of 60 minutes in a volume of 64 μl. The reaction is carried out in a 0.1M Tris-HCl buffer, adjusted to pH 7.6, containing 1 mM DTT, 0.2 mg/ml catalase, 100 μM (±)-6-methyl-5,6,7,8-tetrahydropterine dihydrochloride, 40 μM L-tryptophan, and 40-80 nM of TPH1. The reaction is started by bringing together L-tryptophan with all the other reaction substituents and stopped by quenching with perchloric acid (HClO4). The amount of 5-hydroxy-L-tryptophan produced during the enzymatic reaction is determined by fluorescence readout. Fluorescence, as determined at 540 nm when excited at 300 nm wavelength, increases proportionally to the 5-hydroxy-L-tryptophan formed. Compounds are prepared as 10 mM stock solution in DMSO, then diluted in 384-well plates using DMSO followed by a transfer of the dilutions into the assay plate. Fluorescence is measured for each well and the fluorescence at 540 nm wavelength is compared to the fluorescence of the vehicle in place of compound. Inhibitory activities of example compounds with respect to the TPH1 protein are determined by calculating the IC50 value (the concentration of compound needed to inhibit 50% of the enzyme activity). The calculated IC50 values may fluctuate depending on the daily biochemical assay performance. Fluctuations of this kind are known to those skilled in the art. In the case where IC50 values have been determined several times for the same compound, the mean is given.

SMILES	IC50 [nM]
CN(C)C(=O)c1ccc(OCC(=O)N2CCc3nc4n(c3C2c2ccc(Cl)cc2F)CCCC4)c(Cl)n1 (stereo not drawn) [Example 1.1.1, 6-chloro-5-(2-(1-(4-chloro-2-fluorophenyl)-3,4,6,7,8,9-hexahydroimidazo[1,2-a:5,4-c′]dipyridin-2(1H)-yl)-2-oxoethoxy)-N,N-dimethylpicolinamide]	15
O=C(COc1ccc(N2CCOCC2)nc1Cl)N1CCc2nc3n(c2C1c1ccc(Cl)cc1F)CCCC3 (stereo not drawn) [Example 1.1.2, 1-(1-(4-chloro-2-fluorophenyl)-3,4,6,7,8,9-hexahydro-imidazo[1,2-a:5,4-c′]dipyridin-2(1H)-yl)-2-((2-chloro-6-morpholinopyridin-3-yl)oxy)ethanone]	7
CS(=O)(=O)Nc1ccc(OCC(=O)N2CCc3nc4n(c3C2c2ccc(Cl)cc2F)CCCC4)c(Cl)n1 (stereo not drawn) [Example 1.1.3, N-(6-chloro-5-(2-(1-(4-chloro-2-fluorophenyl)-3,4,6,7,8,9-hexahydroimidazo[1,2-a:5,4-c′]dipyridin-2(1H)-yl)-2-oxoethoxy)pyridin-2-yl)methanesulfonamide]	26
CN(C(=O)c1ccc(OCC(=O)N2CCc3nc4n(c3C2c2ccc(Cl)cc2F)CCCC4)c(Cl)n1)C1CC1 (stereo not drawn) [Example 1.1.4, 6-chloro-5-(2-(1-(4-chloro-2-fluorophenyl)-3,4,6,7,8,9-hexahydroimidazo[1,2-a:5,4-c′]dipyridin-2(1H)-yl)-2-oxoethoxy)-N-cyclopropyl-N-methylpicolinamide]	29
O=C(COc1ccc(-c2ncco2)nc1Cl)N1CCc2nc3n(c2C1c1ccc(Cl)cc1F)CCCC3 (stereo not drawn) [Example 1.1.5, 1-(1-(4-chloro-2-fluorophenyl)-3,4,6,7,8,9-hexahydro-imidazo[1,2-a:5,4-c′]dipyridin-2(1H)-yl)-2-((2-chloro-6-(oxazol-2-yl)pyridin-3-yl)oxy)ethanone]	21
O=C(NC1CC1)c1ccc(OCC(=O)N2CCc3nc4n(c3C2c2ccc(Cl)cc2F)CCCC4)c(Cl)n1 (stereo not drawn) [Example 1.1.6, 6-chloro-5-(2-(1-(4-chloro-2-fluorophenyl)-3,4,6,7,8,9-hexahydroimidazo[1,2-a:5,4-c′]dipyridin-2(1H)-yl)-2-oxoethoxy)-N-cyclopropylpicolinamide]	19
CCN(C)C(=O)c1ccc(OCC(=O)N2CCc3nc4n(c3C2c2ccc(Cl)cc2F)CCCC4)c(Cl)n1 (stereo not drawn) [Example 1.1.7, 6-chloro-5-(2-(1-(4-chloro-2-fluorophenyl)-3,4,6,7,8,9-hexahydroimidazo[1,2-a:5,4-c′]dipyridin-2(1H)-yl)-2-oxoethoxy)-N-ethyl-N-methylpicolinamide]	25
CC(C)N(C)C(=O)c1ccc(OCC(=O)N2CCc3nc4n(c3C2c2ccc(Cl)cc2F)CCCC4)c(Cl)n1 (stereo not drawn) [Example 1.1.8, 6-chloro-5-(2-(1-(4-chloro-2-fluorophenyl)-3,4,6,7,8,9-hexahydroimidazo[1,2-a:5,4-c′]dipyridin-2(1H)-yl)-2-oxoethoxy)-N-isopropyl-N-methylpicolinamide]	55
CN(c1ccc(OCC(=O)N2CCc3nc4n(c3C2c2ccc(Cl)cc2F)CCCC4)c(Cl)n1)S(C)(=O)=O (stereo not drawn) [Example 1.1.9, N-(6-chloro-5-(2-(1-(4-chloro-2-fluorophenyl)-3,4,6,7,8,9-hexahydroimidazo[1,2-a:5,4-c′]dipyridin-2(1H)-yl)-2-oxoethoxy)pyridin-2-yl)-N-methylmethanesulfonamide]	25
O=C(COc1ccc(N2CCCS2(=O)=O)nc1Cl)N1CCc2nc3n(c2C1c1ccc(Cl)cc1F)CCCC3 (stereo not drawn) [Example 1.1.10, 1-(1-(4-chloro-2-fluorophenyl)-3,4,6,7,8,9-hexahydro-imidazo[1,2-a:5,4-c′]dipyridin-2(1H)-yl)-2-((2-chloro-6-(1,1-dioxidoisothiazolidin-2-yl)pyridin-3-yl)oxy)-ethanone]	17
CCc1nc(NS(C)(=O)=O)ccc1OCC(=O)N1CCc2nc3n(c2C1c1ccc(Cl)cc1F)CCCC3 (stereo not drawn) [Example 1.1.11, N-(5-(2-(1-(4-chloro-2-fluorophenyl)-3,4,6,7,8,9-hexahydroimidazo[1,2-a:5,4-c′]dipyridin-2(1H)-yl)-2-oxoethoxy)-6-ethylpyridin-2-yl)methanesulfonamide]	8
CCc1nc(C(=O)NC2CC2)ccc1OCC(=O)N1CCc2nc3n(c2C1c1ccc(Cl)cc1F)CCCC3 (stereo not drawn) [Example 1.1.12, 5-(2-(1-(4-chloro-2-fluorophenyl)-3,4,6,7,8,9-hexahydroimidazo[1,2-a:5,4-c′]dipyridin-2(1H)-yl)-2-oxoethoxy)-N-cyclopropyl-6-ethylpicolinamide]	9
COc1nc(NS(C)(=O)=O)ccc1OCC(=O)N1CCc2nc3n(c2C1c1ccc(Cl)cc1F)CCCC3 (stereo not drawn) [Example 1.1.13, N-(5-(2-(1-(4-chloro-2-fluorophenyl)-3,4,6,7,8,9-hexahydroimidazo[1,2-a:5,4-c′]dipyridin-2(1H)-yl)-2-oxoethoxy)-6-methoxypyridin-2-yl)methanesulfonamide]	347
O=C(COc1ccc(C2CC2)nc1Cl)N1CCc2nc3n(c2C1c1ccc(Cl)cc1F)CCCC3 (stereo not drawn) [Example 1.1.14, 1-(1-(4-chloro-2-fluorophenyl)-3,4,6,7,8,9-hexahydroimidazo[1,2-a:5,4-c′]dipyridin-2(1H)-yl)-2-((2-chloro-6-cyclopropylpyridin-3-yl)oxy)ethanone]	16
CCc1nc(C)ccc1OCC(=O)N1CCc2nc3n(c2C1c1ccc(Cl)cc1F)CCCC3 (stereo not drawn) [Example 1.1.15, 1-(1-(4-chloro-2-fluorophenyl)-3,4,6,7,8,9-hexahydroimidazo[1,2-a:5,4-c′]dipyridin-2(1H)-yl)-2-((2-ethyl-6-methylpyridin-3-yl)oxy)ethanone]	39
O=C(NC1CC1)c1ccc(OCC(=O)N2CCc3nc4n(c3[C@@H]2c2ccc(Cl)cc2F)CCCC4)c(Cl)n1 [Example 1.1.16, (S)-6-chloro-5-(2-(1-(4-chloro-2-fluorophenyl)-3,4,6,7,8,9-hexahydroimidazo[1,2-a:5,4-c′]dipyridin-2(1H)-yl)-2-oxoethoxy)-N-cyclopropylpicolinamide]	12
CS(=O)(=O)Nc1ccc(OCC(=O)N2CCc3nc4n(c3[C@@H]2c2ccc(Cl)cc2F)CCCC4)c(Cl)n1 [Example 1.1.17, (S)-N-(6-chloro-5-(2-(1-(4-chloro-2-fluorophenyl)-3,4,6,7,8,9-hexahydroimidazo[1,2-a:5,4-c′]dipyridin-2(1H)-yl)-2-oxoethoxy)pyridin-2-yl)methanesulfonamide]	23
CCc1nc(NS(C)(=O)=O)ccc1OCC(=O)N1CCc2nc3n(c2[C@@H]1c1ccc(Cl)cc1F)CCCC3 [Example 1.1.18, (S)-N-(5-(2-(1-(4-chloro-2-fluorophenyl)-3,4,6,7,8,9-hexahydroimidazo[1,2-a:5,4-c′]dipyridin-2(1H)-yl)-2-oxoethoxy)-6-ethylpyridin-2-yl)methanesulfonamide]	8
CS(=O)(=O)Nc1ccc(OC2(C(=O)N3CCc4nc5n(c4C3c3ccc(Cl)cc3F)CCCC5)CC2)c(Cl)n1 (stereo not drawn) [Example 1.1.19, N-(6-chloro-5-(1-(1-(4-chloro-2-fluorophenyl)-1,2,3,4,6,7,8,9-octahydroimidazo[1,2-a:5,4-c′]dipyridine-2-carbonyl)cyclopropoxy)pyridin-2-yl)methanesulfonamide]	58
CS(=O)(=O)Nc1ccc(OCC(=O)N2CCc3nc4n(c3C2c2ccc(Cl)cc2F)CCCC4)c(C2CC2)n1 (stereo not drawn) [Example 1.1.20, N-(5-(2-(1-(4-chloro-2-fluorophenyl)-3,4,6,7,8,9-hexahydroimidazo[1,2-a:5,4-c′]dipyridin-2(1H)-yl)-2-oxoethoxy)-6-cyclopropylpyridin-2-yl)methanesulfonamide]	21
CN(C)c1ccc(OCC(=O)N2CCc3nc4n(c3C2c2ccc(Cl)cc2F)CCCC4)c(Cl)n1 (stereo not drawn) [Example 1.1.21, 1-(1-(4-chloro-2-fluorophenyl)-3,4,6,7,8,9-hexahydroimidazo[1,2-a:5,4-c′]dipyridin-2(1H)-yl)-2-((2-chloro-6-(dimethylamino)pyridin-3-yl)oxy)ethan-1-one]	13
